Where two headings read alike, the source gives them in different places. Starred links: 1 amine or outer side, 2 acyl side, 3 side chain; linkers in the order of their positions; H or OH if unused. Residues, ends and D or L forms follow the SMILES beside them. Groups on a side chain read outwards from the residue. *: point of attachment. C18 diacid = O=C(O)CCCCCCCCCCCCCCCCC(=O)*; γGlu = O=C(O)[C@H](CCC(=O)[*:2])N[*:1]; Palmitoyl = CCCCCCCCCCCCCCCC(=O)*; AEEA = NCCOCCOCC(=O)O
How the values were obtained:
[1] = Solubility in buffer systems by UPLC-UV (Example 13); type: physicochemical
Summary of the method: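 Quantitation used UV peak area from UPLC of the 1:10-diluted supernatant, set against a reference-compound standard curve with extinction coefficients adjusted for amino acid sequence.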

[2] = Chemical stability, purity loss by UPLC-UV after 28 days at 40° C. vs 5° C., pH 4.5 acetate buffer (Example 12); type: physicochemical; details: 28 days 40° C. vs 5° C.; pH 4.5, 20 mM acetate buffer; 300 μM
Description: The chemical stability of the compounds was assessed by storing the compounds under various conditions and then determining the loss of purity by UPLC-UV.
Prior to measuring the chemical stability of a batch of test compound, the purity of the compound was determined through UPLC/MS. For stability testing the target concentration was 300 μM pure compound. Therefore, solutions from solid samples were prepared in a pH 4.5, 20 mM acetate buffer system with a concentration of 300 μM compound based on the previously determined % purity:
At the starting point, UPLC-UV was performed by injection of 2 μl of the undiluted sample. Aliquots were then stored for 28 days at temperatures of 5 and 40° C. […] Then 2 μl samples of the undiluted supernatant were analysed with UPLC-UV. The chemical stability was calculated by the equation: [(purity after 28 days at 5° C.)−(purity after 28 days at 40° C.)]/(purity after 28 days at 5° C.)]×100%. The purity was calculated as: [(peak area compound)/(total peak area)]×100%.

human CRF2α receptor = target: T1, human CRF2α receptor (Homo sapiens, UniProt Q13324); assay: cAMP agonism at human CRF2 α receptor in TeloHEAC cells (Example 7); type: cell-based; details: cAMP HTRF, TeloHEAC cells stably expressing human CRF2 α
T1 construct: expressed in transfected cells; host or cells: TeloHEAC
T1 sequence (Q13324 1-411): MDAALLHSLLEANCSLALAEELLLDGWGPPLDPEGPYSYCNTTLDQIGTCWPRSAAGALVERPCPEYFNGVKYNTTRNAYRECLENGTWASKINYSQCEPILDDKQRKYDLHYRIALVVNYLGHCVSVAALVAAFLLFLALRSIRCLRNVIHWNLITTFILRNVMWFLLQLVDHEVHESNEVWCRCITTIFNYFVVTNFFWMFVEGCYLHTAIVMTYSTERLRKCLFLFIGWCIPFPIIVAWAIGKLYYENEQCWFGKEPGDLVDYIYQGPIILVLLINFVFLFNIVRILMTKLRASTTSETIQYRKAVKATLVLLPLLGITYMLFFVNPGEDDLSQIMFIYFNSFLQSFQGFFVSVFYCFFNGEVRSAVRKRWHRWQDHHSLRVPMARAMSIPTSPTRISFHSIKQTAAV
Summary of the method: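 Cryopreserved cells are thawed, washed and resuspended in IBMX-containing (2 mM) HEPES-buffered HBSS with or without 0.1% HSA. Compound incubation runs 30 min at room temperature with 2000 cells per well, then cAMP is measured by time-resolved FRET. Potency is expressed as EC50, efficacy relative to urocortin 2 at 1000 nM.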

[3] = Physical stability, Thioflavin T fibrillation assay (Example 14); type: physicochemical; details: 3 mg/ml, 37° C. shaking
Summary of the method: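 Fibrillation tendency was judged from lag time and rise in Thioflavin T fluorescence, measured every 20 minutes over eight replicates per sample. Peptides at 3 mg/ml final were held at 37° C under cycles of 10 s shaking (960 rpm) and 50 s rest.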

CRF1R receptor = target: T2, CRF1R receptor (Homo sapiens, UniProt P34998); assay: cAMP activity at anti-target CRF1R, CRF1R-overexpression CHO cell line (Example 9); type: cell-based
T2 construct: host or cells: CHO-K1 clone 2
T2 sequence (P34998 24-415): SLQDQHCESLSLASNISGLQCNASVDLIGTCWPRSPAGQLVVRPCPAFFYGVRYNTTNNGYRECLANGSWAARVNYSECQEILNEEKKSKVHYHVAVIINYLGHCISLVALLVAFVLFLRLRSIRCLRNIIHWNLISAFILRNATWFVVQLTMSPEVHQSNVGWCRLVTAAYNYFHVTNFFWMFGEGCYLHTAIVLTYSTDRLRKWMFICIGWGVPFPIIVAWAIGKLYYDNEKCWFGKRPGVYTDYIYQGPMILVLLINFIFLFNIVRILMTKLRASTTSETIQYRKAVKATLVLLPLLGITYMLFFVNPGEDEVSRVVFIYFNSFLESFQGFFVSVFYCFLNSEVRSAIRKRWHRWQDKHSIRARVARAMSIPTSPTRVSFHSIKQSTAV
Summary of the method: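 Using thawed CRF1R-overexpressing CHO cells at 2000 per well, compound is applied for 30 min at RT in HBSS/HEPES buffer with IBMX. Cellular cAMP content is determined via HTRF, and percent activity is calculated against 1000 nM UCN2 defined as 100%.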

rat CRF2R α receptor = assay: cAMP agonism at rat CRF2R α receptor in A7R5 rat aortic smooth muscle cells (Example 8); type: cell-based; details: cAMP HTRF, A7R5 rat aortic smooth muscle cell line, 0% HSA
Summary of the method: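 Potency (EC50) is the concentration reaching half-maximal activation, with responses scaled so that 1000 nM urocortin 2 equals 100%. Intracellular cAMP was quantified by homogeneous time-resolved fluorescence at 665/620 nm, 1 h after lysis-buffer reagents. Compound stimulation lasted 30 min at room temperature on 2000 IBMX-treated (2 mM) cells per well in HEPES-buffered HBSS.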

[4] = 0% HSA, read-out: EC50 [nM], 0% HSA
[5] = Buffer A: 100 mM acetate buffer, pH 4.5
[6] = Buffer B: 100 mM acetate buffer, pH 4.5, 2.7 mg/ml m-cresol

solubility at 1 h ([1]; pH 4.5, Solubility in Buffer B [mg/ml]) [µg/mL]	solubility at 1 h ([1]; pH 7.4, Solubility in Buffer C [mg/ml]) [µg/mL]	EC50 (human CRF2α receptor; 0.1% HSA, read-out: EC50 [nM], 0.1% HSA) [nM]	Increase in FI (fluorescence intensity) [3, 5]	Lag time [3, 5] [h]	Emax (CRF1R receptor; CRF1R-overexpression CHO cell line, read-out: Emax (%)) [%]	Structure (SMILES)	Relative purity loss [%] [2] [%]	EC50 (human CRF2α receptor; [4]) [nM]	Increase in FI (fluorescence intensity) [3, 6]	Lag time [3, 6] [h]	solubility at 1 h ([1]; Buffer B: 100 mM acetate buffer, pH 4.5, 2.7 mg/ml m-cresol, target 10 mg/ml, read-out: Solubility in Buffer B) [µg/mL]	solubility at 1 h ([1]; Buffer C: 100 mM phosphate buffer, pH 7.4, target 10 mg/ml, read-out: Solubility in Buffer C) [µg/mL]	EC50 (rat CRF2R α receptor) [nM]	Emax (CRF1R receptor; CHO) [%]
> 8500	> 8100	0.18	No	>45	47.2	CCCCCCCCCCCCCCCC(=O)N[C@@H](CCC(=O)NCCCC[C@H](NC(=O)[C@H](CC(C)C)NC(=O)CNC(=O)[C@@H](NC(=O)[C@@H]1CCCN1C(=O)[C@@H](NC(=O)[C@H](CC(=O)O)NC(=O)[C@H](CC(C)C)NC(=O)[C@H](CO)NC(=O)[C@H](CC(C)C)NC(=O)[C@@H](NC(=O)[C@@H](N)[C@@H](C)CC)C(C)C)C(C)C)[C@@H](C)CC)C(=O)N[C@@H](CCC(N)=O)C(=O)N[C@@H](CCCCN)C(=O)N[C@@H](CC(C)C)C(=O)N[C@@H](CC(C)C)C(=O)N[C@@H](CCCCN)C(=O)N[C@@H](CCC(N)=O)C(=O)N[C@@H](CCC(N)=O)C(=O)N[C@@H](CCCNC(=N)N)C(=O)N[C@@H](CCC(N)=O)C(=O)N[C@@H](CCCNC(=N)N)C(=O)N[C@@H](CCCCN)C(=O)N[C@@H](CCC(=O)O)C(=O)N[C@@H](CCCNC(=N)N)C(=O)N[C@@H](CCC(N)=O)C(=O)N[C@@H](CCC(N)=O)C(=O)N[C@@H](C)C(=O)N[C@@H](CCC(=O)O)C(=O)N[C@@H](CCCCN)C(=O)N[C@@H](CC(N)=O)C(=O)N[C@@H](C)C(=O)N[C@@H](CCCNC(=N)N)C(=O)N[C@H](C(=O)N[C@@H](CC(C)C)C(=O)N[C@@H](C)C(=O)N[C@@H](CCCNC(=N)N)C(=O)N[C@H](C(N)=O)C(C)C)[C@@H](C)CC)C(=O)O [compound 6] (H-IVLSLDVPIGLK([γGlu-Palmitoyl])QKLLKQQRQRKERQQAEKNARILARV-NH2; N-terminus assumed)	1.9	0.16	No	>45				
						CC[C@H](C)[C@H](N)C(=O)N[C@H](C(=O)N[C@@H](CC(C)C)C(=O)N[C@@H](CO)C(=O)N[C@@H](CC(C)C)C(=O)N[C@@H](CC(=O)O)C(=O)N[C@H](C(=O)N1CCC[C@H]1C(=O)N[C@H](C(=O)N[C@@H](CCCCN)C(=O)N[C@@H](CC(C)C)C(=O)N[C@@H](CCCCNC(=O)COCCOCCNC(=O)COCCOCCNC(=O)CC[C@H](NC(=O)CCCCCCCCCCCCCCCCC(=O)O)C(=O)O)C(=O)N[C@@H](CCC(N)=O)C(=O)N[C@H](C(=O)N[C@@H](CC(C)C)C(=O)N[C@@H](CC(C)C)C(=O)N[C@@H](CCCCN)C(=O)N[C@@H](CCC(N)=O)C(=O)N[C@@H](CCC(=O)O)C(=O)N[C@@H](CCCNC(=N)N)C(=O)N[C@@H](CCC(N)=O)C(=O)N[C@@H](CCCCN)C(=O)N[C@@H](CCCCN)C(=O)N[C@@H](CCC(N)=O)C(=O)N[C@@H](CCCNC(=N)N)C(=O)N[C@@H](CCC(N)=O)C(=O)N[C@@H](CCCCN)C(=O)N[C@@H](C)C(=O)N[C@@H](CCC(=O)O)C(=O)N[C@H](C(=O)N[C@@H](CC(N)=O)C(=O)N[C@@H](CCCCN)C(=O)N[C@@H](CCC(N)=O)C(=O)N[C@H](C(=O)N[C@@H](CC(C)C)C(=O)N[C@@H](C)C(=O)N[C@@H](CCC(N)=O)C(=O)N[C@H](C(N)=O)C(C)C)[C@@H](C)CC)[C@@H](C)O)[C@@H](C)CC)[C@@H](C)CC)C(C)C)C(C)C [compound 77] (H-IVLSLDVPIKLK([AEEA-AEEA-γGlu-C18 diacid])QILLKQERQKKQRQKAETNKQILAQV-NH2)	3.60	0.33	Yes	23.0 to 29.7	> 8000	> 9000	3.26	1.56

— patent US12679878B2, “CRF2 receptor agonists and their use in therapy” (SANOFI, priority 2020, dated 2026)
